In patent US12146004B2, “Polymyxin compounds and uses thereof” (priority 2014, dated 2024):
Converted amounts (≈) assume the structure as drawn. Where two headings read alike, the source gives them in different places. Bridge positions count the residues as written; N and C are the ends. Square brackets hold non-standard residues; d marks the D form. Peptide text beside a SMILES is read from it. * marks the point of attachment. dCha = N[C@H](CC1CCCCC1)C(=O)O; X28 = NCCC(C(=O)*)c1ccccc1Cl; X20 = NCC(Cc1ccccc1F)C(=O)*; X4 = CC(C)CC1CNCC(C(=O)*)C1; X15 = NCCC(CC1CCCC1)C(=O)*; X19 = NCCC(C(=O)*)C1CCCCC1; X22 = NC(CCC(=O)*)C1CCCCC1; Dab = NCC[C@H](N)C(=O)O; Dap = NC[C@H](N)C(=O)O

What was measured:
Assay type in all cases: cell-based
Acinetobacter baumannii = tested on: Acinetobacter baumannii
Summary of the method: (§1)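 In vitro susceptibility was determined across up to nine strains of each pathogen, some resistant. Potency is given as MIC, μg/mL.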

Escherichia coli = tested on: Escherichia coli
Summary of the method: as §1

Klebsiella pneumoniae = tested on: Klebsiella pneumoniae
Summary of the method: as §1

Pseudomonas aeruginosa = tested on: Pseudomonas aeruginosa
Summary of the method: as §1

Row | Compound | MIC A. baumanii 053 (Acinetobacter baumannii) [µg/mL] | MIC A. baumanii 056 (Acinetobacter baumannii) [µg/mL] | MIC A. baumanii ATCC BAA-747 (Acinetobacter baumannii) [µg/mL] | MIC A. baumanii NCTC 13424 (Acinetobacter baumannii) [µg/mL] | MIC E. coli 058 (Escherichia coli) [µg/mL] | MIC E. coli 061 (Escherichia coli) [µg/mL] | MIC E. coli ATCC 25922 (Escherichia coli) [µg/mL] | MIC K. pneumoniae 063 (Klebsiella pneumoniae) [µg/mL] | MIC K. pneumoniae 065 (Klebsiella pneumoniae) [µg/mL] | MIC K. pneumoniae ATCC 13882 (Klebsiella pneumoniae) [µg/mL] | MIC P. aeruginosa 068 (Pseudomonas aeruginosa) [µg/mL] | MIC P. aeruginosa 070 (Pseudomonas aeruginosa) [µg/mL] | MIC P. aeruginosa ATCC 27853 (Pseudomonas aeruginosa) [µg/mL] | MIC P. aeruginosa CCUG 59347 (Pseudomonas aeruginosa) [µg/mL] | MIC E. coli NCTC 9001 (Escherichia coli) [µg/mL] | further results
1 | CC(C)C[C@@H]1NC(=O)[C@@H](CC2CCCCC2)NC(=O)[C@H](CCN)NC(=O)[C@@H](NC(=O)[C@H](CCN)NC(=O)[C@@H](NC(=O)C(CN)Cc2ccccc2F)[C@@H](C)O)CCNC(=O)[C@H]([C@@H](C)O)NC(=O)[C@H](CCN)NC(=O)[C@H](CCN)NC1=O (some centres unmarked) [Example 62, 3-amino-2-(2-fluorobenzyl) propanoyl] (X20-T[Dab][Dab][Dab][dCha]L[Dab][Dab]T; lactam 3-C) | >64 | >64 | 0.5 (≈ 0.435 µM) | 0.5 (≈ 0.435 µM) | 4 (≈ 3.48 µM) | 32 (≈ 27.9 µM) | 0.125 (≈ 0.109 µM) | 64 (≈ 55.7 µM) | 8 (≈ 6.97 µM) | 0.125 (≈ 0.109 µM) | 8 (≈ 6.97 µM) | 16 (≈ 13.9 µM) | 0.5 (≈ 0.435 µM) | 0.5 (≈ 0.435 µM) |  | 
2 | CC(C)C[C@@H]1NC(=O)[C@@H](CC2CCCCC2)NC(=O)[C@H](CCN)NC(=O)[C@@H](NC(=O)[C@H](CN)NC(=O)[C@@H](NC(=O)C(CCN)CC2CCCC2)[C@@H](C)O)CCNC(=O)[C@H]([C@@H](C)O)NC(=O)[C@H](CCN)NC(=O)[C@H](CCN)NC1=O (stereo partly drawn) [Example 75, 4-amino-2-(cyclopentylmethyl) butanoyl L-Thr-L-Dap-polymyxin [D-cyclohexylalanine]-6 heptapeptide.] (X15-T[Dap][Dab][Dab][dCha]L[Dab][Dab]T; lactam 3-C) | >64 | 64 (≈ 57 µM) | 0.125 (≈ 0.111 µM) | 0.125 (≈ 0.111 µM) | 2 (≈ 1.78 µM) | 16 (≈ 14.3 µM) | 0.125 (≈ 0.111 µM) | 16 (≈ 14.3 µM) | 1 (≈ 0.891 µM) | 0.125 (≈ 0.111 µM) | 2 (≈ 1.78 µM) | 2 (≈ 1.78 µM) | 0.25 (≈ 0.223 µM) | 0.25 (≈ 0.223 µM) |  | 
3 | CC(C)C[C@@H]1NC(=O)[C@@H](CC2CCCCC2)NC(=O)[C@H](CCN)NC(=O)[C@@H](NC(=O)[C@H](CN)NC(=O)[C@@H](NC(=O)C(CCN)C2CCCCC2)[C@@H](C)O)CCNC(=O)[C@H]([C@@H](C)O)NC(=O)[C@H](CCN)NC(=O)[C@H](CCN)NC1=O (stereo partly drawn) [Example 85, 4-amino-2-cyclohexylbutanoyl L-Thr-L-Dap-polymyxin [D-cyclohexylalanine-6]heptapeptide.] (X19-T[Dap][Dab][Dab][dCha]L[Dab][Dab]T; lactam 3-C) | 64 (≈ 57 µM) | 64 (≈ 57 µM) | 0.125 (≈ 0.111 µM) | 0.125 (≈ 0.111 µM) | 4 (≈ 3.56 µM) | 16 (≈ 14.3 µM) | 0.125 (≈ 0.111 µM) | 8 (≈ 7.13 µM) | 0.5 (≈ 0.445 µM) | 0.5 (≈ 0.445 µM) | 2 (≈ 1.78 µM) | 4 (≈ 3.56 µM) | 0.5 (≈ 0.445 µM) | 0.5 (≈ 0.445 µM) | 0.06 (≈ 0.0535 µM) | 
4 | CC(C)C[C@@H]1NC(=O)[C@@H](CC2CCCCC2)NC(=O)[C@H](CCN)NC(=O)[C@@H](NC(=O)[C@H](CCN)NC(=O)[C@@H](NC(=O)C(CCN)c2ccccc2Cl)[C@@H](C)O)CCNC(=O)[C@H]([C@@H](C)O)NC(=O)[C@H](CCN)NC(=O)[C@H](CCN)NC1=O (stereo partly drawn) [Example 77, 4-amino-2-(2-chlorophenyl) butanoyl polymyxin [D-cyclohexylalanine]-6 nonapeptide] (X28-T[Dab][Dab][Dab][dCha]L[Dab][Dab]T; lactam 3-C) |  |  | 1 (≈ 0.858 µM) | 0.5 (≈ 0.429 µM) | 8 (≈ 6.87 µM) |  | 0.25 (≈ 0.215 µM) |  | 8 (≈ 6.87 µM) | 0.5 (≈ 0.429 µM) |  |  | 0.5 (≈ 0.429 µM) | 0.5 (≈ 0.429 µM) |  | 
5 | CC(C)CC1CNCC(C(=O)N[C@H](C(=O)N[C@@H](CCN)C(=O)N[C@H]2CCNC(=O)[C@H]([C@@H](C)O)NC(=O)[C@H](CCN)NC(=O)[C@H](CCN)NC(=O)[C@H](CC(C)C)NC(=O)[C@@H](CC3CCCCC3)NC(=O)[C@H](CCN)NC2=O)[C@@H](C)O)C1 (some centres unmarked) [Example 73] (X4-T[Dab][Dab][Dab][dCha]L[Dab][Dab]T; lactam 3-C) | 64 (≈ 56.3 µM) | 16 (≈ 14.1 µM) | 0.25 (≈ 0.22 µM) | 0.125 (≈ 0.11 µM) | 1 (≈ 0.88 µM) | 2 (≈ 1.76 µM) | 0.125 (≈ 0.11 µM) | 8 (≈ 7.04 µM) | 2 (≈ 1.76 µM) | 0.25 (≈ 0.22 µM) | 1 (≈ 0.88 µM) | 1 (≈ 0.88 µM) | 0.5 (≈ 0.44 µM) | 0.5 (≈ 0.44 µM) | 0.125 (≈ 0.11 µM) | 
6 | CC(C)C[C@@H]1NC(=O)[C@@H](CC2CCCCC2)NC(=O)[C@H](CCN)NC(=O)[C@@H](NC(=O)[C@H](CN)NC(=O)[C@@H](NC(=O)CCC(N)C2CCCCC2)[C@@H](C)O)CCNC(=O)[C@H]([C@@H](C)O)NC(=O)[C@H](CCN)NC(=O)[C@H](CCN)NC1=O (stereo partly drawn) [Example 63, 4-amino-4-cyclohexylbutanoyl L-Thr-L-Dap-polymyxin [D-cyclohexylalanine]-6 heptapeptide.] (X22-T[Dap][Dab][Dab][dCha]L[Dab][Dab]T; lactam 3-C) | 64 (≈ 57 µM) | 32 (≈ 28.5 µM) | 0.125 (≈ 0.111 µM) | 0.125 (≈ 0.111 µM) | 4 (≈ 3.56 µM) | 16 (≈ 14.3 µM) | 0.25 (≈ 0.223 µM) | >64 | 4 (≈ 3.56 µM) | 0.125 (≈ 0.111 µM) | 8 (≈ 7.13 µM) | 8 (≈ 7.13 µM) | 0.25 (≈ 0.223 µM) | 0.5 (≈ 0.445 µM) |  | 
7 | CC(C)C[C@@H]1NC(=O)[C@@H](CC2CCCCC2)NC(=O)[C@H](CCN)NC(=O)[C@@H](NC(=O)[C@H](CN)NC(=O)[C@@H](NC(=O)C(CCN)c2ccc(F)cc2)C(C)O)CCNC(=O)[C@H]([C@@H](C)O)NC(=O)[C@H](CCN)NC(=O)[C@H](CCN)NC1=O (single isomer, unassigned; isomer 2) [Example 44, 4-amino-2-(4-fluorophenyl) butanoyl L-Thr-L-Dap-polymyxin [D-cyclohexylalanine]-6 heptapeptide. Isomer 2] |  | 8 (≈ 7.05 µM) | 0.06 (≈ 0.0529 µM) | 0.06 (≈ 0.0529 µM) | 2 (≈ 1.76 µM) | 8 (≈ 7.05 µM) | 0.25 (≈ 0.22 µM) | 16 (≈ 14.1 µM) | 0.5 (≈ 0.441 µM) | 0.25 (≈ 0.22 µM) | 2 (≈ 1.76 µM) | 1 (≈ 0.882 µM) | 0.25 (≈ 0.22 µM) | 0.5 (≈ 0.441 µM) | 0.03 (≈ 0.0264 µM) | MIC K. pneumoniae ATCC 4352 (Klebsiella pneumoniae): 0.125 µg/mL (≈ 0.11 µM)
8 | CC(C)C[C@@H]1NC(=O)[C@@H](CC2CCCCC2)NC(=O)[C@H](CCN)NC(=O)[C@@H](NC(=O)[C@H](CN)NC(=O)[C@@H](NC(=O)CC(CN)Cc2ccccc2)[C@@H](C)O)CCNC(=O)[C@H]([C@@H](C)O)NC(=O)[C@H](CCN)NC(=O)[C@H](CCN)NC1=O (single isomer, unassigned; isomer 1) [Example 58, 4-amino-3-benzylbutanoyl L-Thr-L-Dap-polymyxin [D-cyclohexylalanine]-6 heptapeptide. Isomer 1] |  |  |  |  |  |  |  |  |  |  |  |  |  |  |  | MIC A. baumanii 053 (Acinetobacter baumannii; strain 053): 64 µg/mL (≈ 56.6 µM); MIC A. baumanii 056 (Acinetobacter baumannii; strain 056): 64 µg/mL (≈ 56.6 µM); MIC A. baumanii ATCC BAA-747 (Acinetobacter baumannii; strain ATCC BAA-747): 0.03 µg/mL (≈ 0.0265 µM); MIC A. baumanii NCTC 13424 (Acinetobacter baumannii; strain NCTC 13424): 0.125 µg/mL (≈ 0.111 µM); MIC E. coli 058 (Escherichia coli; strain 058): 4 µg/mL (≈ 3.54 µM); MIC E. coli 061 (Escherichia coli; strain 061): 16 µg/mL (≈ 14.2 µM); MIC E. coli ATCC 25922 (Escherichia coli; strain ATCC 25922): 0.25 µg/mL (≈ 0.221 µM); MIC E. coli NCTC 9001 (Escherichia coli; strain NCTC 9001): 0.125 µg/mL (≈ 0.111 µM); MIC K. pneumoniae 063 (Klebsiella pneumoniae; strain 063): 64 µg/mL (≈ 56.6 µM); MIC K. pneumoniae 065 (Klebsiella pneumoniae; strain 065): 4 µg/mL (≈ 3.54 µM); MIC K. pneumoniae ATCC 13882 (Klebsiella pneumoniae; strain ATCC 13882): 0.25 µg/mL (≈ 0.221 µM); MIC P. aeruginosa 068 (Pseudomonas aeruginosa; strain 068): 2 µg/mL (≈ 1.77 µM); MIC P. aeruginosa 070 (Pseudomonas aeruginosa; strain 070): 8 µg/mL (≈ 7.08 µM); MIC P. aeruginosa ATCC 27853 (Pseudomonas aeruginosa; strain ATCC 27853): 0.25 µg/mL (≈ 0.221 µM); MIC P. aeruginosa CCUG 59347 (Pseudomonas aeruginosa; strain CCUG 59347): 0.25 µg/mL (≈ 0.221 µM)
